Data taken from patent US20200223889A1, “Bicyclic Compounds Capable of Binding to Melanocortin 4 Receptor” (Novo Nordisk A/S, priority 2017, published 2020).
Like-named read-outs stand apart in the source and are kept apart here. Positions of bridges follow the written chain, without caps; N, C: chain ends. Non-standard residues stand in square brackets, D forms with d. Residues, ends and D or L forms follow the SMILES beside them. Hyp = O=C(O)[C@@H]1C[C@@H](O)CN1; Dab = NCC[C@H](N)C(=O)O; Aib = CC(C)(N)C(=O)O; GABA = NCCCC(=O)O

Experiments:
human MC4R [1] = target: T1, human MC4R (Homo sapiens, UniProt P32245); experiment: 125NDP-α-MSH competitive binding to membranes of BHK cells expressing human MC4 receptor (filtration assay)
T1 construct: expressed in transfected cells
Outline: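 Displacement of ^125NDP-α-MSH (apx. […] final) was measured by filtration after 2 h at 25 °C, using diluted membranes of stably transfected BHK cells in pH 7.0 HEPES buffer. Compounds spanned 1 μM to 0.001 nM; binding curves were analysed by non-linear regression.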

human MC1R = target: T2, human MC1R (Homo sapiens, UniProt Q01726); experiment: Functional cAMP assay (CisBio HTRF) in BHK cells expressing human MC1R; type: cell-based
T2 construct: expressed in transfected cells
Procedure: In order to assess the potency of the compounds on human MC1R and human MC4R cAMP signalling was measured.
cAMP induction was measured by c-AMPdynamic2 assay, HTRF 62AM4PEC system from CisBio for the human MC1R and human MC4R according to the protocol provided by the vendor. BHK cells expressing the human MC1 or MC4 receptor were generated by stable transfection with expression vectors encoding the cDNA of either MC1R or MC4R.
In details; 25 μl compound—or standard solution were added in the respective wells. Compound was reconstituted in buffer (DMEM w/o phenol red, 10 mM
Hepes, lx Glutamine, 0.1% OV-albumin1, 1 mM IBMX) and serially diluted starting at 2 μM, 10-fold seven times. Dilutions were carried out in the same aforementioned buffer to the desired working concentration ranges (2× higher than the final concentration). 25 μl cell solution was then added and allowed to incubate for 30 min while lightly shaking, at 25° C. […] The provided components for the assay were reconstituted according to the CisBio assay protocol “3.1 supplied reagents and preparation procedure” in MilliQ purification system H2O and diluted 1:20 in lysis buffer. 25 μl cAMP-d2 and 25 μl Cryptate conjugate were added to all wells.
Plates were centrifuged at 1500 rpm for 30 sec and incubated for 1 h, lightly shaking, at 25° C. in a hotel stacker. The plates were read on Mithras LB 940 provided by Berthold Technologies The data were analysed by non-linear regression analysis of binding curves, using the Windows™ program GraphPad™ Prism (GraphPad Software, USA).
The latter is used when no full curve can be obtained in the concentration ranges indicated above.

human MC4R [2] = target: T1, human MC4R; experiment: Functional cAMP assay (CisBio HTRF) in BHK cells expressing human MC4R; type: cell-based; details: for MC1R/MC4R cAMP EC50 ratio: MC1R cAMP EC50 divided by MC4R cAMP EC50
Outline: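 Stably transfected BHK cells expressing human MC1R or MC4R; cAMP quantified by HTRF (cAMP-d2/cryptate) after 30 min compound stimulation at 25 °C in DMEM-based buffer with 1 mM IBMX. Compounds were prepared as 10-fold serial dilutions starting at 2 μM (working solution, 2× final). Readout after 1 h at 25 °C; non-linear regression.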

[3] = human MC4R, BHK cell membranes, 125NDP-α-MSH radioligand, read-out: MC4R binding Ki
[4] = BHK cells expressing human MC1R, '>' = highest dose used with no response, read-out: MC1R cAMP EC50
[5] = BHK cells expressing human MC4R, '>' = highest dose used with no response, read-out: MC4R cAMP EC50

T2 sequence (Q01726 whole entry): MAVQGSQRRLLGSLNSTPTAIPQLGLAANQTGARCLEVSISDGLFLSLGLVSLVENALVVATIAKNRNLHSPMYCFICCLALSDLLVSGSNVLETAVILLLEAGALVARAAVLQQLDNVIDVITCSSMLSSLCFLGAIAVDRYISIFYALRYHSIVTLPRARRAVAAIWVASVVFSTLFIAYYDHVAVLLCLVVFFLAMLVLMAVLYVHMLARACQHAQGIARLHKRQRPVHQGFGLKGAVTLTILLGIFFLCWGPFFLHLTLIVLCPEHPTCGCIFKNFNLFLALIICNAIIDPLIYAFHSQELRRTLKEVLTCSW
T1 sequence (P32245 whole entry): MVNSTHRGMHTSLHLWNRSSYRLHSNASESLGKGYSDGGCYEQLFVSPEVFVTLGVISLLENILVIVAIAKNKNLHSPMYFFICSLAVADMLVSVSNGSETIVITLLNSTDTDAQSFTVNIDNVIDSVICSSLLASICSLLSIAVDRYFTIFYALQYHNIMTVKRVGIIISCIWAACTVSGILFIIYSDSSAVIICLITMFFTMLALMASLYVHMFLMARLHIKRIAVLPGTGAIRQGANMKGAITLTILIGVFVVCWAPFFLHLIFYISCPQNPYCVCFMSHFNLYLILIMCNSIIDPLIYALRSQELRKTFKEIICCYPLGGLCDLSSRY

Ki (human MC4R [1]; [3]) [nM] | EC50 (human MC1R; [4]) [nM] | EC50 (human MC4R [2]; [5]) [nM] | SMILES | MC1R/MC4R cAMP EC50 ratio (human MC4R [2]) | Ki (human MC4R [1]) [nM] | EC50 (human MC1R) [nM] | EC50 (human MC4R [2]) [nM]
0.08 | 1.76 | 0.02 | C[C@@H]1NC(=O)[C@@H]2CSCSC[C@H](NC(=O)[C@H](Cc3c[nH]c4ccccc34)NC(=O)[C@H](CCCNC(=N)N)NC(=O)[C@@H](Cc3ccccc3)NC(=O)[C@H](Cc3c[nH]cn3)NC1=O)C(=O)N[C@@H](C)C(=O)N[C@@H](Cc1c[nH]cn1)C(=O)N[C@H](Cc1ccccc1)C(=O)N[C@@H](CCCNC(=N)N)C(=O)N[C@@H](Cc1c[nH]c3ccccc13)C(=O)N2 [Chem. 8, c[c[Cys-Ala-His-D-Phe-Arg-Trp-Cys]- Ala-His-D-Phe-Arg-Trp]] | 88 | – | – | –
– | – | – | C[C@H]1NC(=O)[C@@H]2CSSC[C@H](NC(=O)[C@H](Cc3c[nH]c4ccccc34)NC(=O)[C@H](CCCNC(=N)N)NC(=O)[C@@H](Cc3ccccc3)NC(=O)[C@H](Cc3c[nH]cn3)NC1=O)C(=O)N[C@H](C)C(=O)N[C@@H](Cc1c[nH]cn1)C(=O)N[C@H](Cc1ccccc1)C(=O)N[C@@H](CCCNC(=N)N)C(=O)N[C@@H](Cc1c[nH]c3ccccc13)C(=O)N2 [Chem. 10, c[c[Cys-D-Ala-His-D-Phe-Arg-Trp- Cys]-D-Ala-His-D-Phe-Arg-Trp]] | 98 | 0.13 | 4.88 | 0.05
– | – | – | C[C@@H]1NC(=O)[C@H](C)NC(=O)[C@@H]2CSSC[C@H](NC(=O)[C@H](Cc3c[nH]c4ccccc34)NC(=O)[C@H](C)NC(=O)[C@@H](Cc3ccccc3)NC1=O)C(=O)N[C@@H](C)C(=O)N[C@@H](Cc1c[nH]cn1)C(=O)N[C@H](Cc1ccccc1)C(=O)N[C@@H](CCCNC(=N)N)C(=O)N[C@@H](Cc1c[nH]c3ccccc13)C(=O)N2 [Chem. 11, c[[Cys-Ala-His-D-Phe-Arg-Trp-Cys]- Ala-Ala-D-Phe-Ala-Trp]] (cyclo(AA[dF]AWCAH[dF]RWC); disulfide 6-12) | 72 | 0.25 | 2.17 | 0.03
– | – | – | C[C@@H]1NC(=O)[C@@H]2CSSC[C@H](NC(=O)[C@H](Cc3c[nH]c4ccccc34)NC(=O)[C@H](CCCNC(=N)N)NC(=O)[C@@H](Cc3ccccc3)NC(=O)[C@H](Cc3c[nH]cn3)NC1=O)C(=O)N[C@@H](CCCNC(=N)N)C(=O)N[C@@H](Cc1ccccc1)C(=O)N[C@@H](Cc1ccccc1)C(=O)N[C@@H](CC(N)=O)C(=O)N[C@@H](C)C(=O)N2 [Chem. 12, c[c[Cys-Ala-His-D-Phe-Arg-Trp-Cys]- Arg-Phe-Phe-Asn-Ala]] (cyclo(ACAH[dF]RWCRFFN); disulfide 2-8) | 57 | 0.28 | 3.97 | 0.07
– | – | – | C[C@@H]1NC(=O)[C@@H]2CSSC[C@H](NC(=O)[C@H](Cc3c[nH]c4ccccc34)NC(=O)[C@H](CCCNC(=N)N)NC(=O)[C@@H](Cc3ccccc3)NC(=O)[C@H](Cc3c[nH]cn3)NC1=O)C(=O)N[C@@H](CCCNC(=N)N)C(=O)N[C@@H](Cc1ccccc1)C(=O)N[C@@H](Cc1ccccc1)C(=O)N[C@@H](CC(N)=O)C(=O)N[C@@H](C)C(=O)N[C@@H](Cc1ccccc1)C(=O)N2 [Chem. 13, c[c[Cys-Ala-His-D-Phe-Arg-Trp-Cys]- Arg-Phe-Phe-Asn-Ala-Phe]] (cyclo(AFCAH[dF]RWCRFFN); disulfide 3-9) | 64 | 0.26 | 6.36 | 0.1
0.06 | 0.22 | 0.02 | C[C@@H]1NC(=O)[C@@H]2CSSC[C@H](NC(=O)[C@H](Cc3c[nH]c4ccccc34)NC(=O)[C@H](CCCCNC(=N)N)NC(=O)[C@@H](Cc3ccccc3)NC(=O)[C@H](Cc3c[nH]cn3)NC1=O)C(=O)N[C@@H](C)C(=O)N[C@@H](Cc1c[nH]cn1)C(=O)N[C@H](Cc1ccccc1)C(=O)N[C@@H](CCCCNC(=N)N)C(=O)N[C@@H](Cc1c[nH]c3ccccc13)C(=O)N2 [Chem. 22, c[c[Cys-Ala-His-D-Phe-HArg-Trp- Cys]-Ala-His-D-Phe-HArg-Trp]] | 11 | – | – | –
0.03 | 0.28 | 0.01 | N=C(N)NCCC[C@@H]1NC(=O)[C@@H](Cc2ccccc2)NC(=O)[C@H](Cc2c[nH]cn2)NC(=O)CCCNC(=O)[C@@H]2CSSC[C@H](NC(=O)[C@H](Cc3c[nH]c4ccccc34)NC1=O)C(=O)NCCCC(=O)N[C@@H](Cc1c[nH]cn1)C(=O)N[C@H](Cc1ccccc1)C(=O)N[C@@H](CCCNC(=N)N)C(=O)N[C@@H](Cc1c[nH]c3ccccc13)C(=O)N2 [Chem. 35, c[c[Cys-GABA-His-D-Phe-Arg-Trp- Cys]-GABA-His-D-Phe-Arg-Trp]] (cyclo(C[GABA]H[dF]RWC[GABA]H[dF]RW); disulfide 1-7) | 28 | – | – | –
5.64 | > 3.7 | 4.22 | CC1(C)NC(=O)[C@@H]2CSSC[C@H](NC(=O)[C@H](Cc3c[nH]c4ccccc34)NC(=O)[C@H](CCCNC(=N)N)NC(=O)[C@@H](Cc3ccccc3)NC(=O)[C@@H]3C[C@@H](O)CN3C1=O)C(=O)NC(C)(C)C(=O)N1C[C@H](O)C[C@H]1C(=O)N[C@H](Cc1ccccc1)C(=O)N[C@@H](CCCNC(=N)N)C(=O)N[C@@H](Cc1c[nH]c3ccccc13)C(=O)N2 [Chem. 38, c[c[Cys-Aib-Hyp-D-Phe-Arg-Trp- Cys]-Aib-Hyp-D-Phe-Arg-Trp]] (cyclo([Aib][Hyp][dF]RWC[Aib][Hyp][dF]RWC); disulfide 6-12) | – | – | – | –
≥ 10000 | > 100 | > 1000 | C[C@@H]1NC(=O)[C@@H]2CSSC[C@H](NC(=O)[C@H](Cc3c[nH]c4ccccc34)NC(=O)[C@H](CNC(=N)N)NC(=O)[C@@H](Cc3ccccc3)NC(=O)[C@H](Cc3c[nH]cn3)NC1=O)C(=O)N[C@@H](C)C(=O)N[C@@H](Cc1c[nH]cn1)C(=O)N[C@H](Cc1ccccc1)C(=O)N[C@@H](CNC(=N)N)C(=O)N[C@@H](Cc1c[nH]c3ccccc13)C(=O)N2 [Chem. 42, c[c[Cys-Ala-His-D-Phe-AGP-Trp- Cys]-Ala-His-D-Phe-AGP-Trp]] | – | – | – | –
– | – | – | C[C@@H]1NC(=O)[C@@H]2CSSC[C@H](NC(=O)[C@H](Cc3c[nH]c4ccccc34)NC(=O)[C@H](CCCNC(=N)N)NC(=O)[C@@H](Cc3ccccc3)NC(=O)[C@H](Cc3c[nH]cn3)NC1=O)C(=O)N[C@@H](C)C(=O)N[C@@H](CCC(=O)O)C(=O)N[C@@H](CCC(=O)O)C(=O)N[C@@H](CCC(=O)O)C(=O)N[C@@H](Cc1c[nH]c3ccccc13)C(=O)N2 [Chem. 44, c[c[Cys-Ala-His-D-Phe-Arg-Trp-Cys]- Ala-Glu-Glu-Glu-Trp]] (cyclo(AEEEWCAH[dF]RWC); disulfide 6-12) | 21 | 50.9 | 31.9 | 1.53
7.86 | > 5.5 | 5.65 | CC1(C)NC(=O)[C@@H]2CSSC[C@H](NC(=O)[C@H](Cc3c[nH]c4ccccc34)NC(=O)[C@H](CCN)NC(=O)[C@@H](Cc3ccccc3)NC(=O)[C@H](Cc3c[nH]cn3)NC1=O)C(=O)NC(C)(C)C(=O)N[C@@H](Cc1c[nH]cn1)C(=O)N[C@H](Cc1ccccc1)C(=O)N[C@@H](CCN)C(=O)N[C@@H](Cc1c[nH]c3ccccc13)C(=O)N2 [Chem. 46, c[c[Cys-Aib-His-D-Phe-Dab-Trp- Cys]-Aib-His-D-Phe-Dab-Trp]] (cyclo([Aib]H[dF][Dab]WC[Aib]H[dF][Dab]WC); disulfide 6-12) | >1 | – | – | –
– | – | – | C[C@@H]1NC(=O)[C@@H]2CSSC[C@H](NC(=O)[C@H](Cc3c[nH]c4ccccc34)NC(=O)[C@H](CCCNC(=N)N)NC(=O)[C@H](Cc3ccccc3)NC(=O)[C@H](Cc3c[nH]cn3)NC1=O)C(=O)N[C@@H](C)C(=O)N[C@@H](Cc1c[nH]cn1)C(=O)N[C@@H](Cc1ccccc1)C(=O)N[C@@H](CCCNC(=N)N)C(=O)N[C@@H](Cc1c[nH]c3ccccc13)C(=O)N2 [Chem. 56, c[c[Cys-Ala-His-Phe-Arg-Trp-Cys]- Ala-His-Phe-Arg-Trp]] | 80 | 1.82 | 35.3 | 0.44

SMILES | Ki (human MC4R [1]; [3]) [nM] | EC50 (human MC1R; [4]) [nM] | EC50 (human MC4R [2]; [5]) [nM] | MC1R/MC4R cAMP EC50 ratio (human MC4R [2]) | Ki (human MC4R [1]) [nM] | EC50 (human MC1R) [nM] | EC50 (human MC4R [2]) [nM]
N=C(N)NCCC[C@@H]1NC(=O)[C@@H](Cc2ccccc2)NC(=O)[C@H](Cc2c[nH]cn2)NC(=O)[C@H]2CCCN2C(=O)[C@@H]2CSSC[C@H](NC(=O)[C@H](Cc3c[nH]c4ccccc34)NC1=O)C(=O)N1CCC[C@@H]1C(=O)N[C@@H](Cc1c[nH]cn1)C(=O)N[C@H](Cc1ccccc1)C(=O)N[C@@H](CCCNC(=N)N)C(=O)N[C@@H](Cc1c[nH]c3ccccc13)C(=O)N2 [Chem. 33, c[c[Cys-D-Pro-His-D-Phe-Arg-Trp- Cys]-D-Pro-His-D-Phe-Arg-Trp]] (cyclo(C[dP]H[dF]RWC[dP]H[dF]RW); disulfide 1-7) | 27.8 | > 1 | 19.8 | – | – | – | –
